From patent EP1187837B1, “THIAZEPINE INHIBITORS OF HIV-1 INTEGRASE” (THE UNITED STATES GOVERNMENT as represented by THE …, priority 1999, dated 2000)
Values joined by “and” are separate entries in the source; they are usually repeats but may differ in a detail not shown here. Identical values can stand only once. Like-named read-outs stand apart in the source and are kept apart here.

Key:
[1] = molecular target: T1, purified human immunodeficiency virus type-1 integrase (HIV-1 IN) (Human immunodeficiency virus type 1 group M subtype B, UniProt P12497); assay: biochemical;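 note: enzyme at 200 nM preincubated with inhibitor 30 min at 30°C, then 20 nM labeled 21-mer DNA for 1 h, inhibition relative to enzyme without drug, background from DNA alone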
Excerpt: (§1) The HPLC purified oligonucleotides AE117 (5'-[sequence]-3'); AE118 (5'-[sequence]-3'); AE157 (5'-[sequence]-3'); AE146 (5'-[sequence]-3'); AE156 (5'-[sequence]-3'); RM22M (5'-[sequence]-3'); and RMAB2 (5'-[sequence]-3') were purchased from Midland Certified Reagent Company (Midland, TX). An expression system for the wild-type integrase and the IN^50-212 (F185K) were obtained from the Laboratory of Molecular Biology, NIDDK, NIH, Bethesda, MD.
(§2) To analyze the extent of 3'-processing and strand transfer using 5'-end labeled substrates, AE118 was 5'-end labeled using T4 polynucleotide kinase (Gibco BRL) and γ[^32P]-ATP (Dupont-NEN). […] The kinase was heat-inactivated and AE117 was added to the same final concentration. The mixture was heated at 95°C, allowed to cool slowly to room temperature, and run through a G-25 Sephadex quick spin column (Boehringer Mannheim, Indianapolis, IN) to separate annealed double-stranded oligonucleotide from unincorporated label.
(§3) To determine the extent of 3'-processing and strand transfer, integrase was preincubated at a final concentration of 200 nM with the inhibitor in a reaction buffer (50 mM NaCl, 1 mM HEPES, pH 7.5, 50 µM EDTA, 50 µM dithiothreitol, 10% glycerol (w/v), 7.5 mM MnCl2, 0.1 mg/ml bovine serum albumin, 10 mM 2-mercaptoethanol, 10% dimethyl sulfoxide, and 25 mM MOPS, pH 7.2) at 30°C for 30 minutes. Then, 20 nM of the 5'-end ^32P-labeled linear oligonucleotide substrate was added, and incubation was continued for an additional one hour. Reactions were quenched by the addition of an equal volume (16 µl) of loading dye (98% deionized formamide, 10 mM EDTA, 0.025% xylene cyanol and 0.025% bromophenol blue). An aliquot (5 µl) was electrophoresed on a denaturing 20% polyacrylamide gel (0.09 M tris-borate pH 8.3, 2 mM EDTA, 20% acrylamide, 8M urea).
(§4) Gels were dried, exposed in a PhosphorImager cassette, and analyzed using a Molecular Dynamics PhosphorImager (Sunnyvale, CA). Percent inhibition was calculated using the following equation: %I = 100 X [1-(D-C)/(N-C)] [formula] where C, N, and D are the fractions of 21-mer substrate converted to 19-mer (3'-processing product) or strand transfer products for DNA alone (C), DNA plus integrase (N), and integrase plus drug (D). All IC50 values were determined by plotting the drug concentration versus percent inhibition, and determining the concentration which produced 50% inhibition.

[2] = molecular target: T1, purified human immunodeficiency virus type-1 integrase (HIV-1 IN); assay: Integrase assay: 3'-processing and strand transfer (3'-end joining), 32P-labeled oligonucleotide, gel/PhosphorImager, Mn2+ cofactor; conditions: purified IN 200 nM, 7.5 mM MnCl2, 30°C;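 note: enzyme at 200 nM preincubated with inhibitor 30 min at 30°C, then 20 nM labeled 21-mer DNA for 1 h, inhibition relative to enzyme without drug, background from DNA alone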
Excerpt: as §1, §2, §3, §4

HIV-1 infected CEM cells = assay: Anti-HIV assay in cultured CEM cells (NCI Antiviral Drug Screen, XTT formazan); format: cell-based
Method: (§5) The anti-HIV drug testing was performed at NCI based on a protocol described by Weislow et al.^36 All compounds were dissolved in dimethyl sulfoxide and diluted 1:100 in cell culture medium. Exponentially growing T4 lymphocytes (CEM cell line) were added at 5000 cells per well. Frozen virus stock solutions were thawed immediately before use, suspended in complete medium to yield the desired multiplicity of infection (m. o. i. ≈ 0.1), and added to the microtiter wells, resulting in a 1:200 final dilution of the compound. Uninfected cells with the compound served as a toxicity control, and infected and uninfected cells without the compound served as basic controls.
(§6) Cultures were incubated at 37°C in a 5% CO2 atmosphere for 6 days. The tetrazolium salt, XTT was added to all wells, and cultures were incubated to allow formazan color development by viable cells. Individual wells were analyzed spectrophotometrically to quantitate formazan production, and in addition were viewed microscopically for detection of viable cells and confirmation of protective activity.

[3] = Cytotoxicity control in uninfected CEM cells (XTT formazan); format: cell-based; conditions: human, read-out: Cell data (µM) CC50: 50% cytotoxic concentration; for CC50 at 6 days: uninfected T4 lymphocytes (CEM cell line); for CC50 at 144 h: 6 days
Method: as §5, §6

[4] = molecular target: T1, purified human immunodeficiency virus type-1 integrase (HIV-1 IN)
Excerpt: as §1, §2, §3, §4

HIV-1 IN = molecular target: T2, HIV-1 IN (Human immunodeficiency virus type 1 group M subtype B, UniProt P12497); assay: Integrase assay with Mg+2 as cofactor; format: biochemical; conditions: compared with Mn+2
T2 construct: An expression system for the wild-type integrase; made in house
Method: A 21-mer oligonucleotide corresponding to the last 21 bases on the HIV-1 viral DNA in the U5 region of long terminal repeat (LTR) was radiolabeled with ^32P. This is shown in the Figs. 2 and 3 as a band corresponding to DNA alone. Integrase will cleave the last two bases of this DNA in the presence of Mn^+2 or Mg^+2 to give a 19-mer DNA substrate (lane 2) which runs faster on the gel and is indicated as 19-mer on the Figures. When an inhibitor is added this process is blocked, therefore the original 21-mer DNA would not be cut. When an inhibitor is added at various concentrations, percent inhibition at every concentration will be calculated by quantification of the intensity of each band using an Imagequant program.
The gels are run using polyacrylamide according to the standard procedures. Upon completion of electrophoresis run, the gels are dried and exposed to a phosphorimager cassette. The cassettes are analyzed by the phosphorimager, and the bands are shown on a computer screen. The intensity of each band is quantitated, plotted against concentrations of drugs, and the IC50 values are calculated from the graphs.

[5] = Integrase Assay IC50 (µM) 3'-Processing
[6] = Human immunodeficiency virus 1, CCRF-CEM, 144 h, HIV-1 infected CEM cells, 6 days, XTT, read-out: Cell data (µM) EC60: 50% effective concentration
[7] = Human immunodeficiency virus 1, CCRF-CEM, 144 h, read-out: Cell data (µM) EC60: 50% effective concentration, HIV-1 infected CEM cells, 6 days, XTT
[8] = read-out: Integrase Assay IC50 (µM) 3'-Processing

For `COc1ccc2c(c1)C(=O)N1CSCC1C(=O)S2` (racemic) [Compound 10, (±)-1,11a-dihydro-7-methoxy-3H,5H,11H-thiazolo[4,3-c][1,4]benzothiazepine-5,11-dione], the IC50 [1] was 155 µM and 245 µM, the IC50 [2, 5] was 155 µM and 275 µM and the EC50 (HIV-1 infected CEM cells; [6]) was over 200 µM. The CC50 at 6 days [3] was over 200 µM.
In the case of `COc1cc2c(cc1OC)C(=O)N1CSCC1C(=O)S2` (centres unmarked) [Compound 11], the EC50 (HIV-1 infected CEM cells; [7]) is reported as over 50 µM.
`COC1Sc2ccccc2C(=O)N2CCCC12` (centres unmarked) [Compound 22] showed an IC50 [1] of over 1000 µM, an IC50 [2, 5] of over 1000 µM and an EC50 (HIV-1 infected CEM cells; [7]) of over 200 µM. For the same compound, the CC50 at 144 h [3] was over 200 µM.
For `CN(C)Cc1ccc2n1Cc1ccccc1SC2c1ccc(F)cc1` (centres unmarked) [Compound 30], the IC50 [1] was over 1000 µM and the IC50 [2, 5] was over 1000 µM.
`COc1cc2c(cc1OC)C(=O)N1CCCC1C(=O)S2` (centres unmarked) [Compound 13] gave an IC50 [2, 8] of over 1000 µM, an EC50 (HIV-1 infected CEM cells; [7]) of over 200 µM and an IC50 [4] of over 1000 µM.
Compound `CCOC(=O)C1Sc2ccccc2Cn2cccc21` (centres unmarked) [Compound 29] has an IC50 [1] of over 1000 µM and an IC50 [2, 5] of over 1000 µM.
With `CN1CCN([C@@H]2Sc3ccccc3C(=O)N3CCC[C@@H]23)CC1` (racemic) [Compound 27, (±)-cis-2,3,11,11a-Tetrahydro-11-(4-methylpiperazin-1-yl)-1H,5H-pyrrolo[2,1-c][1,4]benzothiazepin-5-one] the IC50 [1] was over 1000 µM, the IC50 [2, 5] was over 1000 µM and the EC50 (HIV-1 infected CEM cells; [6]) was over 125 µM. It also gave a CC50 at 6 days [3] of over 125 µM.
With `O=C1Sc2ccccc2C(=O)N2CCSC12` (centres unmarked) [Compound 1] the “inhibition of IN in the presence of Mg+2” value (HIV-1 IN) was “active in the presence of Mg^+2 within the same concentration range as in Mn^+2”, the EC50 (HIV-1 infected CEM cells; HIV-1 infected CEM cells, 6 days, XTT, read-out: Cell data (µM) EC60: 50% effective concentration) was 107 µM and the EC50 (HIV-1 infected CEM cells; [7]) was 107 ± 26 µM.
For `O=C1Sc2ccccc2Cn2cccc21` [Compound 28], the EC50 (HIV-1 infected CEM cells; [7]) was 146 µM and the CC50 at 144 h [3] was over 200 µM.
`O=C1Sc2ccccc2C(=O)N2CCCCC12` (centres unmarked) [Compound 14] gave an EC50 (HIV-1 infected CEM cells; [7]) of over 200 µM.
In the case of `O=C1c2ccccc2SC(O)C2CCCN12` (centres unmarked) [Compound 25], the IC50 [2, 8] is reported as over 1000 µM, the EC50 (HIV-1 infected CEM cells; [7]) is reported as over 200 µM and the IC50 [4] is reported as over 1000 µM.
`O=C1c2ccccc2SC(O)(c2ccccc2)C2CCCN12` (racemic) [Compound 26, (±)-2,3,11,11a-Tetrahydro-11-hydroxy-11-phenyl-1H,5H-pyrrolo [2,1-c][1,4]benzothiazepin-5-one] gave an IC50 [1] of over 1000 µM and an IC50 [2, 5] of over 1000 µM.
For `O=C1Sc2ccc(Cl)cc2C(=O)N2CCSC12` (racemic) [Compound 2, (±)-7-Chloro-2,3-dihydro-5H-thiazolo[2,3-c][1,4]benzothiazepine-5,11 (11aH)-dione], the IC50 [1] was 120 µM and 60 µM, the IC50 [2, 5] was 151 µM and 105 µM and the EC50 (HIV-1 infected CEM cells; [6]) was over 50 µM. For the same compound, the CC50 at 6 days [3] was over 50 µM.
With `CN1CCN(Cc2ccc3n2Cc2ccccc2SC3c2ccccc2)CC1` (racemic) [Compound 31, (±)-3-[(4-Methylpiperazin-1-yl)methyl]-11-phenyl-5H,11H-pyrrolo [2,1-c][1,4]benzothiazepine] the IC50 [1] was over 1000 µM and the IC50 [2, 5] was over 1000 µM.
With `Cc1ccc2c(c1)C(=O)N1CSCC1C(=O)S2` (racemic) [Compound 8, (±)-1,11a-Dihydro-7-methyl-3H,5H,11H-thiazolo[4,3-c][1,4] benzothiazepine-5,11-dione] the IC50 [1] was 63 µM, the IC50 [2, 5] was 52 µM and the CC50 at 6 days [3] was 35 µM.
With `O=C1Sc2cc3ccccc3cc2C(=O)N2CSCC12` (racemic) [Compound 20, (±)-1,13a-Dihydro-3H,5H,11H-naphto[2,3-f]thiazolo[4,3-c][1,4] thiazepine-5,13-dione] the “inhibition of IN in the presence of Mg+2” value (HIV-1 IN) was “active in the presence of Mg^+2 within the same concentration range as in Mn^+2” and the EC50 (HIV-1 infected CEM cells; [7]) was 279 to 286 µM.
Compound `O=C1Sc2ccc(Br)cc2C(=O)N2CCSC12` (racemic) [Compound 3, (±)-7-Bromo-2,3-dihydro-5H-thiazolo[2,3-c][1,4]benzothiazepine-5,11 (11aH)-dione] has an IC50 [1] of 48 ± 18 µM and an IC50 [2, 5] of 58 ± 15 µM.
`O=C1c2ccccc2SCC2CSC(c3ccccc3)N12` (centres unmarked) [Compound 23] gave an IC50 [1] of 288 µM and an IC50 [2, 5] of 111 µM.
`O=C1Sc2ccccc2C(=O)N2COCC12` (racemic) [Compound 12, (±)-1,11a-Dihydro-3H,5H,11H-oxazolo[4,3-c][1,4]benzothiazepine-5,11-dione] showed an IC50 [1] of over 333 µM and an IC50 [2, 5] of over 333 µM.
For `O=C1Sc2ccc(Cl)cc2C(=O)N2CSCC12` (racemic) [Compound 6, (±)-7-Chloro-1,11a-dihydro-3H,5H,11H-thiazolo[4,3-c][1,4] benzothiazepine-5,11-dione], the IC50 [1] was 160 µM and 110 µM, the IC50 [2, 5] was 158 µM and 111 µM and the EC50 (HIV-1 infected CEM cells; [6]) was over 100 µM. It also gave a CC50 at 6 days [3] of over 100 µM.
For `O=C1Sc2ccccc2C(=O)N2CSCC12` (racemic) [Compound 5], the EC50 (HIV-1 infected CEM cells; [7]) was over 200 µM.
`O=C1Sc2ccc(Br)cc2C(=O)N2CSCC12` (racemic) [Compound 7, (±)-7-Bromo-1,11a-dihydro-3H,5H,11H-thiazolo[4,3-c][1,4] benzothiazepine-5,11-dione] gave an IC50 [1] of 74 ± 32 µM, an IC50 [2, 5] of 87 ± 24 µM and an EC50 (HIV-1 infected CEM cells; [6]) of over 200 µM. For the same compound, the CC50 at 6 days [3] was over 200 µM.
Compound `O=C1Sc2cc([N+](=O)[O-])ccc2C(=O)N2CSCC12` (racemic) [Compound 9, (±)-1,11a-Dihydro-8-nitro-3H,5H,11H-thiazolo[4,3-c][1,4] benzothiazepine-5,11-dione] has an IC50 [1] of 100 ± 36 µM, an IC50 [2, 5] of 90 ± 27 µM and an EC50 (HIV-1 infected CEM cells; [6]) of over 50 µM. It also gave a CC50 at 6 days [3] of over 50 µM.
Work on `CC(=O)OC1Sc2ccccc2C(=O)N2CCCC12` (centres unmarked) [Compound 21] yielded an IC50 [2, 8] of over 1000 µM, an EC50 (HIV-1 infected CEM cells; [7]) of over 200 µM and an IC50 [4] of over 1000 µM.
With `O=C1Sc2cc3ccccc3cc2C(=O)N2CCSC12` (racemic) [Compound 19, (±)-2,3-Dihydro-5H-naphto[2,3-f]thiazolo[2,3-c][1,4]thiazepine-5,13(13aH)-dione] the “inhibition of IN in the presence of Mg+2” value (HIV-1 IN) was “active in the presence of Mg^+2 within the same concentration range as in Mn^+2” and the EC50 (HIV-1 infected CEM cells; [7]) was 60 µM.
`COc1cc2c(cc1OC)C(=O)N1CCCC1CS2` (centres unmarked) [Compound 24] showed an IC50 [2, 8] of over 1000 µM, an EC50 (HIV-1 infected CEM cells; [7]) of over 200 µM and an IC50 [4] of over 1000 µM.
`Cc1ccc2c(c1)C(=O)N1CC[S@@+]([O-])[C@@H]1C(=O)S2` (racemic) [Compound 15, (±)-cis-2,3-Dihydro-7-methyl-5H-thiazolo[2,3-c][1,4]benzothiazepme-5,11 (11aH)-dione 1-Oxide] showed an EC50 (HIV-1 infected CEM cells; [7]) of over 100 µM and a CC50 at 144 h [3] of over 100 µM.
